From ChEMBL document CHEMBL1201862, “PubChem BioAssay data set” (2004)
pIC50: −log10 of the molar value. The source made the active and inactive calls.

What was measured:
[1] = target: T1, DNA dC->dU-editing enzyme APOBEC-3A (Homo sapiens, UniProt P31941); experiment: A3A deaminase inhibition for selectivity – biochemical, dose response (AID 504722); format: functional
[2] = target: T2, Rac GTPase-activating protein 1 (Homo sapiens, UniProt Q9H0H5); experiment: blockers of MgcRacGAP-driven Rac1 GTP hydrolysis – biochemical, ADP Hunter fluorescence, primary and confirmatory, confirmation (AID 624330); format: functional
T2 sequence (Q9H0H5 whole entry): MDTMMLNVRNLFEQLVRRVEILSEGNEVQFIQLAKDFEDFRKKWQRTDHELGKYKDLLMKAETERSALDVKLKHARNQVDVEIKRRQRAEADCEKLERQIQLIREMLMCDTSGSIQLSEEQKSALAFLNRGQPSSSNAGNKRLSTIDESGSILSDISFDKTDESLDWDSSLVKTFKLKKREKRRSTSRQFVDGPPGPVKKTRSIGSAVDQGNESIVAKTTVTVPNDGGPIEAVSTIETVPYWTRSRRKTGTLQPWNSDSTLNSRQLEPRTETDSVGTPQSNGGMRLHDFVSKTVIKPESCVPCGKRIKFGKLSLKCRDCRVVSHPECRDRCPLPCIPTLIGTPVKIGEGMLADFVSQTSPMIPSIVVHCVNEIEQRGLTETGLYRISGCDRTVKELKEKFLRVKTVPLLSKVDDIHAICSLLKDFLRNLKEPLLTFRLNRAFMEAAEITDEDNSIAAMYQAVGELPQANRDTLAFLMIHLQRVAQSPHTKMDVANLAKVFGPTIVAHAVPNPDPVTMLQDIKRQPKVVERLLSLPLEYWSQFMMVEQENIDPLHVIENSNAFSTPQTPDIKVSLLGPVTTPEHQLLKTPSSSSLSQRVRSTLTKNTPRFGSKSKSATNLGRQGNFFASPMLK

[3] = target: T3, DNA dC->dU-editing enzyme APOBEC-3G (Homo sapiens, UniProt Q9HC16); experiment: Dose Response confirmation of small molecule APOBEC3G DNA Deaminase Inhibitors via a fluorescence-based single-stranded DNA deaminase assay. [Related pubchem assays (depositor defined):AID493012, AID493028]; format: functional
Aminopeptidase N = target: T4, Aminopeptidase N (Plasmodium falciparum FcB1/Columbia, UniProt O96935); experiment: malaria alanyl aminopeptidase activity blockers – biochemical, fluorogenic H-Leu-NHMec substrate, 1536-well (AID 1445); design: species or system Plasmodium falciparum 3D7, 3D7
T4 sequence (O96935 whole entry): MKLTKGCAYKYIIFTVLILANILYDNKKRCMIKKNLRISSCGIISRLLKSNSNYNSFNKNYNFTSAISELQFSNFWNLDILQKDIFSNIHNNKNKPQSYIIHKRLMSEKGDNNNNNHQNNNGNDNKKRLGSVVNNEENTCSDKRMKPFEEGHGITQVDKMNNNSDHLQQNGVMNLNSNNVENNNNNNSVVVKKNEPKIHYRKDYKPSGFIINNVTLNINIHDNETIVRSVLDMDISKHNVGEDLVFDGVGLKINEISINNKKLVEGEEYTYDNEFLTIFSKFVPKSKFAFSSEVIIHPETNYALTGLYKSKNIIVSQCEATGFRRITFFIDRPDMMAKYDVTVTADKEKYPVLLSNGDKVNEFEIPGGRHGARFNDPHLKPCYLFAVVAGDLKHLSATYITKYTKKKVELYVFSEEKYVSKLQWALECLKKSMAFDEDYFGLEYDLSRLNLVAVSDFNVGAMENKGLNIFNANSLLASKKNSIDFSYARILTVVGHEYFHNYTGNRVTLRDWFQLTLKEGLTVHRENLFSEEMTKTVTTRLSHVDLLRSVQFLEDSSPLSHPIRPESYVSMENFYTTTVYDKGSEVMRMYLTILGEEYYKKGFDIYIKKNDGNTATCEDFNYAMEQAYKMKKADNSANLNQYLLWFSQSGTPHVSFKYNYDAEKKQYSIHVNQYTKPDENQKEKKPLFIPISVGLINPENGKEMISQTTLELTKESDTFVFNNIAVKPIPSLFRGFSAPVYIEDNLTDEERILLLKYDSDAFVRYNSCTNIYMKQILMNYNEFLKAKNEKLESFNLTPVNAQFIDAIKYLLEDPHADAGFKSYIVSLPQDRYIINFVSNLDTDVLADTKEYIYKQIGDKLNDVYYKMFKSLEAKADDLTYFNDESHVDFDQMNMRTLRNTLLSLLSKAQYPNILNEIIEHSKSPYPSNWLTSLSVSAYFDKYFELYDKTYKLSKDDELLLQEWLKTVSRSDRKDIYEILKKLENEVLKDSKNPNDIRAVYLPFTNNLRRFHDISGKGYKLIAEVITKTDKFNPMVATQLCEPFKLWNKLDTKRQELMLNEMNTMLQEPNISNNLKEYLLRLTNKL

Large T antigen = Large T antigen (Simian virus 40, UniProt P03070); format: functional, Betapolyomavirus macacae;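 further: Confirmatory-stage PubChem screen for compounds that inhibit SV40 T antigen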
[4] = target: T5, Zinc finger protein mex-5 (Caenorhabditis elegans, UniProt Q9XUB2); experiment: potency of MEX-5 RNA-binding blockers – biochemical, C. elegans, fluorescence polarization, dose response (AID 1960)
T5 sequence (Q9XUB2 whole entry): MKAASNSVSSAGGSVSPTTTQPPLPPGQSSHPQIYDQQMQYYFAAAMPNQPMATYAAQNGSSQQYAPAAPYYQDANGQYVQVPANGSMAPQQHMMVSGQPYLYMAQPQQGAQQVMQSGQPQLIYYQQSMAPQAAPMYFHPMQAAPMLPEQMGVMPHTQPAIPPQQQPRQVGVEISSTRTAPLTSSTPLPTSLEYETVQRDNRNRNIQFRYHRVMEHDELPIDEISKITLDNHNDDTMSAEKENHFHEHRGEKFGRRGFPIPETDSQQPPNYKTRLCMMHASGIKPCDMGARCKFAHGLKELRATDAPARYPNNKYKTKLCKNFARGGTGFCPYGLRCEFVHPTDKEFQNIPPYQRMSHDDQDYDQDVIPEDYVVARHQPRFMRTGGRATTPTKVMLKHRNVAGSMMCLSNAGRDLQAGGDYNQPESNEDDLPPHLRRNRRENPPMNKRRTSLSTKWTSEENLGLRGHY

[5] = target: Induced myeloid leukemia cell differentiation protein Mcl-1 (Homo sapiens, UniProt Q07820); format: functional
[6] = target: T6, RNA-binding protein pos-1 (Caenorhabditis elegans, UniProt G5EF15); experiment: disruptors of C. elegans POS-1 RNA interaction – biochemical, fluorescence polarization, dose response (AID 1964);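 further: purified POS-1 fused to maltose binding protein made in E. coli; potency of compounds blocking POS-1 binding to fluorescent RNA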
T6 sequence (G5EF15 whole entry): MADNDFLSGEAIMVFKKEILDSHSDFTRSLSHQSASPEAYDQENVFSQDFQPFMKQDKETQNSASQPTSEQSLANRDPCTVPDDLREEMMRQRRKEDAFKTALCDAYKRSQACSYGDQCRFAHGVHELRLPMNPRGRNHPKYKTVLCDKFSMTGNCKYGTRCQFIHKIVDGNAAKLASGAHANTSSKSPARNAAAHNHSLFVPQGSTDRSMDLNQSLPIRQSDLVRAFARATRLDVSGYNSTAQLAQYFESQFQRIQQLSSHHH

[7] = target: Neurotensin receptor type 1 (Homo sapiens, UniProt P30989); format: functional;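 further: Image-based confirmatory dose-response assay measuring agonist activity at NTR1; NTR1-expressing U2OS osteosarcoma cells imaged for beta-arrestin GFP spot formation; agonist potency where compounds increase beta-arrestin recruitment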
[8] = target: T7, Microphthalmia-associated transcription factor (Homo sapiens, UniProt O75030); experiment: reducers of TRPM1 reporter luminescence, concentration series – cell-based, SK-MEL-5, cherry-picked, set 3, MITF inhibitor project, dose response (AID 493073); format: functional;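 further: SK-MEL-5 melanoma cells with luciferase driven by the MITF target TRPM1 promoter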
T7 sequence (O75030 whole entry): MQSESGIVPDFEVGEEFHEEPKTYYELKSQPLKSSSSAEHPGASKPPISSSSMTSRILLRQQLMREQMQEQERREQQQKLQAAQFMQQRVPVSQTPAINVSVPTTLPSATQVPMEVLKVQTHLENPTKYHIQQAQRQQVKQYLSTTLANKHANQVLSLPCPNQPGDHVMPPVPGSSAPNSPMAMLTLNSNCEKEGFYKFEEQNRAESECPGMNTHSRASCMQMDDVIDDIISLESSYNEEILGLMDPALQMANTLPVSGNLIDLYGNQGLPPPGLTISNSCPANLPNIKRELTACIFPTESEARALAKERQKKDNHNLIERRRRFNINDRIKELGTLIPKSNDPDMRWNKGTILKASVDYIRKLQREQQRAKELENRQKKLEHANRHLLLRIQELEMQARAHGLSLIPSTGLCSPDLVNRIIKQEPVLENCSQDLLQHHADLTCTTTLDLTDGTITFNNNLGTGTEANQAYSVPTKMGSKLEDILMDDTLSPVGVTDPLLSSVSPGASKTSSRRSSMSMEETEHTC

[9] = target: T1, DNA dC->dU-editing enzyme APOBEC-3A; experiment: Dose Response confirmation of small molecule APOBEC3A DNA Deaminase Inhibitors via a fluorescence-based single-stranded DNA deaminase assay. [Related pubchem assays (depositor defined):AID493011, AID493024]; format: functional
[10] = target: T3, DNA dC->dU-editing enzyme APOBEC-3G; format: functional
[11] = target: Heat shock protein HSP 90-alpha (Homo sapiens, UniProt P07900); format: functional, organism-based
[12] = Trypanosoma cruzi growth suppression in host cells – NIH3T3 host cells, beta-gal luminescence, confirmation (AID 2044); format: functional, cell-based;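 further: intracellular parasites grown in NIH/3T3 mouse fibroblasts as host cells; luminescent beta-galactosidase reporter signal from transgenic T. cruzi replicating inside host cells; inhibitors lower the luminescence signal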
INS1 = experiment: INS-1E survival protection against cytokine death – cell-based, luminescence, retest, dose response (AID 449756); format: functional; conditions: Rattus norvegicus;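 further: cell death triggered by IL-1 beta plus TNF-alpha plus IFN-gamma mixture; protective hits raise ATP signal compared with cytokine alone wells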
[13] = NIH3T3 cell viability loss – ATP luminescence, mouse fibroblasts, counter-screen, dose response (AID 2010); format: functional, cell-based;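 further: cells exposed to compound for about 90 hours before reading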
Streptokinase A = target: T8, Streptokinase A (Streptococcus pyogenes serotype M1, UniProt P10520); experiment: viability-normalized secreted streptokinase activity reduction – plasminogen activation absorbance, OD405, dose response (AID 1914); format: functional, Streptococcus pyogenes M1 GAS;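 further: secreted streptokinase activity via plasminogen activation per viability signal from cell pellet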
T8 sequence (P10520 whole entry): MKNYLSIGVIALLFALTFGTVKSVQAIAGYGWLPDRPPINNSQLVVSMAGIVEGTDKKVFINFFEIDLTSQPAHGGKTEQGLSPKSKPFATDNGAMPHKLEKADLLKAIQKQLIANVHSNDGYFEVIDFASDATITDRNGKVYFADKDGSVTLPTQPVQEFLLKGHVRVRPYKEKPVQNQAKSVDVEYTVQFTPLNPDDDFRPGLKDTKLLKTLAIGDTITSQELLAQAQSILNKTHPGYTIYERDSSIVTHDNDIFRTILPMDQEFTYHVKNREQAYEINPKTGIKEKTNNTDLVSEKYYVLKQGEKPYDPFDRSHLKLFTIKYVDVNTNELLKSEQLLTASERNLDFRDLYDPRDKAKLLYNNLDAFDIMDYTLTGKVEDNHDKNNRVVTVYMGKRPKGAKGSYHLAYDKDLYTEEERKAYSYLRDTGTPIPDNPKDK

[14] = tested on: Streptococcus sp. 'group A'; experiment: Streptococcus pyogenes SK(-)GAS viability under kanamycin – luminescence, BacTiterGlo, confirmation, counter-screen for streptokinase expression inhibitor project, dose response (AID 1900); format: functional, organism-based
Beta-galactosidase = Beta-galactosidase (Escherichia coli, UniProt Q8VNN2); format: functional
Streptococcus = experiment: GAS UMAA2166 growth inhibition – luminescence, BacTiterGlo, counter-screen for streptokinase expression inhibitor project, dose response (AID 1915); format: functional, organism-based;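 further: potency for reduction of bacterial viability or growth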
[15] = target: T9, Kappa-type opioid receptor (Homo sapiens, UniProt P41145); format: functional
[16] = target: T9, Kappa-type opioid receptor; format: functional; remark: listed apart in the source
[17] = Vero E6 cell cytotoxicity, dose response, cytotoxicity control for non-replicating M. tuberculosis project, secondary assay (AID 492998); format: functional, VeroE6; conditions: Vero C1008
[18] = HepG2 cell cytotoxicity, dose response, cytotoxicity control for non-replicating M. tuberculosis project (AID 489018); format: functional; conditions: Mycobacterium tuberculosis
[19] = THP-1 cell cytotoxicity, dose response, cytotoxicity control for non-replicating M. tuberculosis project (AID 489025); format: functional
cells = format: functional

T1 sequence (P31941 whole entry): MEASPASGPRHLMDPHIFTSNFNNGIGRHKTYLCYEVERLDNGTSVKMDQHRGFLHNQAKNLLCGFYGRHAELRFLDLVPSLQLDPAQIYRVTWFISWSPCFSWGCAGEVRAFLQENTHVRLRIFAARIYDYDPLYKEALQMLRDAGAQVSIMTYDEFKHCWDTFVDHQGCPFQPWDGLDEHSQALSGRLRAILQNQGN
T3 sequence (Q9HC16 whole entry): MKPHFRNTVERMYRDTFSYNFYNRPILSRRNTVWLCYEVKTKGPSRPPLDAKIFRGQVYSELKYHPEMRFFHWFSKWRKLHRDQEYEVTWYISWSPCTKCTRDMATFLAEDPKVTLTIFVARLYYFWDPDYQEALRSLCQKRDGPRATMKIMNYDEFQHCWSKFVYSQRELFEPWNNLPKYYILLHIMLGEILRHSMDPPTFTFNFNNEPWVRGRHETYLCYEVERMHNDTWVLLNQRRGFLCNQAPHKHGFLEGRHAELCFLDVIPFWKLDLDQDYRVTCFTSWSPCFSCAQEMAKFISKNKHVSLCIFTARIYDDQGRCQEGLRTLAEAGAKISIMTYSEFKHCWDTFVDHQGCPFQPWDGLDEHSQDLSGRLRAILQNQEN
T9 sequence (P41145 whole entry): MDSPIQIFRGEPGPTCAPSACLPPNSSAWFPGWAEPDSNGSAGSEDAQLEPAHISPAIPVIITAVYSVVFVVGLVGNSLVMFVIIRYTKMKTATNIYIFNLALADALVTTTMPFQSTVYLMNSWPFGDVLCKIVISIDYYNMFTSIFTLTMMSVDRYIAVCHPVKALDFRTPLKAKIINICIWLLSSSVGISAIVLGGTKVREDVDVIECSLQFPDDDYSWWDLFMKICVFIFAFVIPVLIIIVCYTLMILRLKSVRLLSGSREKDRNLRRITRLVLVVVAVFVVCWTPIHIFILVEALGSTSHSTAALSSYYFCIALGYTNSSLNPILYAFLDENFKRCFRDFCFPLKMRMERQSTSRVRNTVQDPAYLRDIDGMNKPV
Chain of Induced myeloid leukemia cell differentiation protein Mcl-1 (Q07820 whole entry, the tested form may be a part): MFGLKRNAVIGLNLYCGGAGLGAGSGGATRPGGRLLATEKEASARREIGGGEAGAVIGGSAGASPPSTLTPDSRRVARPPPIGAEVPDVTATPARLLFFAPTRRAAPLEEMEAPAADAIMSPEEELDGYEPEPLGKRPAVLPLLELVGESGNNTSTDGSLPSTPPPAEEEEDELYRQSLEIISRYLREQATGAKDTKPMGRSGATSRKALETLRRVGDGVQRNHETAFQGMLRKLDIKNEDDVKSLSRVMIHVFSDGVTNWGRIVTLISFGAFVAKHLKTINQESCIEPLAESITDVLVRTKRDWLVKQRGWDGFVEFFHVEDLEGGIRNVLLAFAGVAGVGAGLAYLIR
Chain of Beta-galactosidase (Q8VNN2 whole entry): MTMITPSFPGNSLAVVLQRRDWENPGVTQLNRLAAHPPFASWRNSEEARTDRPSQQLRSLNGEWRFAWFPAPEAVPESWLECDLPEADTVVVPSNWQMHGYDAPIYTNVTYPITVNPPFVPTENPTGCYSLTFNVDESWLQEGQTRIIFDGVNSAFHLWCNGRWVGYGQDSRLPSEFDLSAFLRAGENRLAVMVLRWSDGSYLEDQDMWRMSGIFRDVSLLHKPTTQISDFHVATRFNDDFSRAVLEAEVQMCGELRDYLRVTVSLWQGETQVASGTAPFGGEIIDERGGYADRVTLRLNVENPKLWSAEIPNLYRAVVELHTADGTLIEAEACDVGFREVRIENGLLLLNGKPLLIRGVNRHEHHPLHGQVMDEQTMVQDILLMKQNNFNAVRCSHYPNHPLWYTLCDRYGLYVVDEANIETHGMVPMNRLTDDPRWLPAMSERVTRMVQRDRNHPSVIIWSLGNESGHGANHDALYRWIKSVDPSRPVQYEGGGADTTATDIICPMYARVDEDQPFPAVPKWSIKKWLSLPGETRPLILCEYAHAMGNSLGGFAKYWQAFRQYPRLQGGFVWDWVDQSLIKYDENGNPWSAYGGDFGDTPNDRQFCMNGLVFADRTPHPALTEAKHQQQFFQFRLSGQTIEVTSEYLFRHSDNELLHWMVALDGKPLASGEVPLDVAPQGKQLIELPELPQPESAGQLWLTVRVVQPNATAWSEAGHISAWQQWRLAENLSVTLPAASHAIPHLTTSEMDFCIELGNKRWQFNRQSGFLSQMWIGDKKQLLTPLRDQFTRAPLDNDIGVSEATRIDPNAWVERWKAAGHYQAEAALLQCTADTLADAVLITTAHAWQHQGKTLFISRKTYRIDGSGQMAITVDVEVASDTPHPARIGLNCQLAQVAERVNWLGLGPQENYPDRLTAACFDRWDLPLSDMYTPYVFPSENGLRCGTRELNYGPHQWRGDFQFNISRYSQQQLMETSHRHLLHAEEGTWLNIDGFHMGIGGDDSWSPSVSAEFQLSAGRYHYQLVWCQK
Chain of Large T antigen (P03070 whole entry): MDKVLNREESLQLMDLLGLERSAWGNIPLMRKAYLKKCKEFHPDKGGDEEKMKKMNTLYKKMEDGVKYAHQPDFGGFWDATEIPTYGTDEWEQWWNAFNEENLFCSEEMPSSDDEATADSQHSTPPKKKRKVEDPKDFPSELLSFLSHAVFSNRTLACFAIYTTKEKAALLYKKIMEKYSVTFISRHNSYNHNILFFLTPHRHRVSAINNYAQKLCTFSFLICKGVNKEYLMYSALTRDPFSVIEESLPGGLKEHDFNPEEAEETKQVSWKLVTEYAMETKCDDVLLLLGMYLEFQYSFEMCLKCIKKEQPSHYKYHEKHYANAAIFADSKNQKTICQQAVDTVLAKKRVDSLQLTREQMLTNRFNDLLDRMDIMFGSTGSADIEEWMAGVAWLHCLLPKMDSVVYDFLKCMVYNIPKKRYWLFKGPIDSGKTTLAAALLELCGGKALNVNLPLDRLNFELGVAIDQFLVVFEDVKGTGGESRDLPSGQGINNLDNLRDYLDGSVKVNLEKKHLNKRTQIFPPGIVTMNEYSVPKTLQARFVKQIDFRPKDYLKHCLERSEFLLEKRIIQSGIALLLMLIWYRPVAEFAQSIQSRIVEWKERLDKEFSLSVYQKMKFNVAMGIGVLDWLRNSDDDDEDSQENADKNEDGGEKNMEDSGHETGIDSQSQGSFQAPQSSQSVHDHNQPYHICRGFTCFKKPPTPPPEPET
Chain of Neurotensin receptor type 1 (P30989 whole entry): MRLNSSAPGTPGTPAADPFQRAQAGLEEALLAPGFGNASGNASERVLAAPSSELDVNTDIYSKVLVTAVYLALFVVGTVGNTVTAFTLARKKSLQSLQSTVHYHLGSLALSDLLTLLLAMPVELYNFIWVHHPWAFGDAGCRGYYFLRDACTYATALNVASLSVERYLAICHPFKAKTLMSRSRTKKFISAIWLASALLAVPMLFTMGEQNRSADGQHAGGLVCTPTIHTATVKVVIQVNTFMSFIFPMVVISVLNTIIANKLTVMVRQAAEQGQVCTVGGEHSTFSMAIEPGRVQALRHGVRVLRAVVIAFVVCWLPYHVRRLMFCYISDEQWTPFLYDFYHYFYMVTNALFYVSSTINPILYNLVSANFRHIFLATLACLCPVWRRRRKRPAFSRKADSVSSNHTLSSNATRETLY

Cc1cccc(-c2nnc(S)n2/N=C/c2ccco2)c1
IC50 [1]: > 100 µM (inactive)
IC50 [2]: 89.6 µM (active)
IC50 [3]: 2.1 µM (active)

Nc1cc(C(=O)O)c(N)c2c1C(=O)c1ccccc1C2=O
IC50 (Aminopeptidase N): 58.9 µM (active)
IC50 (Large T antigen): 21.9 µM (active)
EC50 [4]: 2.39 µM (active)
IC50 [5]: 3.71 µM (active)
EC50 [6]: 4.27 µM (active)

CCOC(=O)/C=c1\s/c(=C\c2ccc3cc(OC)ccc3c2)c(=O)n1CC(=O)NCC1CCCO1 (stereo not drawn)
EC50 [7]: 7.15 µM (active)
EC50 [4]: > 300 µM (not active)
EC50 [6]: 90.4 µM (active)
AC50 [8]: 5.73 µM (active)

C=CCNC(=O)c1ccccc1NC(=O)C1CCN(S(=O)(=O)c2ccc(SC)cc2)CC1
IC50 [9]: 5.28 µM (active)
IC50 [10]: 6.15 µM (active)

Cc1[nH]c(N=Nc2ccccc2)nc1N=Nc1ccccc1
AC50 [11]: 3.76 µM (active)
EC50 [12]: 1.12 µM (active)
AC50 (INS1): 3.72 µM (active)
EC50 [13]: 4.45 µM (active)
EC50 (Streptokinase A): 23.4 µM (active)
EC50 [14]: 3.49 µM (active)
EC50 (Beta-galactosidase): 17.4 µM (active)
EC50 (Streptococcus): > 50 µM (not active)
pIC50 [15]: < 4.49
IC50 [16]: 8.4 µM (active)

O=C(Cc1cccs1)N/N=C\c1ccc([N+](=O)[O-])s1
CC50 [17]: 11.5 µM (active)
CC50 [18]: 17.7 µM (active)
EC50 [12]: 0.36 µM (active)
AC50 (INS1): 6.28 µM (active)
EC50 [13]: 17.5 µM (active)
CC50 [19]: 15.3 µM (active)
IC50 (cells): 9.65 µM (active)

Sc1nnc(-c2ccco2)n1/N=C/c1c(Cl)cccc1Cl
IC50 [1]: > 100 µM (inactive)
IC50 [3]: 5.03 µM (active)
